Measurements reported in US4556660A, “N-(Bicyclic heterocyclyl)-4-piperidinamines” (Janssen Pharmaceutica N.V., priority 1983, dated 1985).
Where two headings read alike, the source gives them in different places.

Tests used:
[1] = tested on: compound 48/80-induced lethality; test: Protection of rats from compound 48/80-induced lethality; type: in vivo, Male rats of an inbred Wistar strain; settings: for ED50: Rattus norvegicus, 4 h, read-out: compound 48/80 lethality test rats-ED50
Experimental: Protection of rats from compound 48/80-induced lethality
The protection from compound 48/80-induced lethal circulatory collapse appears to be a simple way of evaluating quantitatively the antihistaminic activity of test compounds. Male rats of an inbred Wistar strain, weighing 240-260 g were used in the experiment. After overnight starvation the rats were transferred to conditioned laboratories (temp.=21±1° C., relative humidity-65±5%).
The rats were treated subcutaneously or orally with a test compound or with the solvent (NaCl solution, 0.9%). […] Survival after 4 hours is therefore considered to be a safe criterion of a protective effect of drug administration.
The ED50 -values of the compounds of formula (I) and the intermediates of formula (XVIII) are listed in the first column of table 1 and table 2. Said ED50 -values are the values in mg/kg body weight at which the tested compounds protect 50% of the tested animals against compound 48/80-induced lethality.

[2] = tested on: serotonin; compound 48/80-induced gastric lesions; test: Antagonistic activity on the effects of serotonin in the gastric lesion test (lesions induced by compound 48/80); type: in vivo, Male rats of a Wistar inbred strain
Experimental: Antagonistic activity on the effects of serotonin in the gastric lesion test
Male rats of a Wistar inbred strain, weighing 220-250 g, were starved overnight, water being available ad libitum. The test compounds were administered orally as a solution or as a suspension in aqueous medium. A control rat and a "blank" rat received the test compound. One hour later 5-[4-(diphenylmethyl)-1-piperazinylmethyl]-1-methyl-1H-benzimidazole-2-methanol was administered subcutaneously to all rats at the dose of 2.5 mg/kg.
Four hours after the intravenous injection of compound 48/80, the rats were decapitated and the stomachs were removed. Subsequently the stomachs were inspected for distension and contents (blood, fluid, food) and thoroughly rinsed. The macroscopic lesions were scored from 0 to +++, 0 corresponding to complete absence of visible lesions and the highest score corresponding to reddish rough patches covering more than half the glandular area.

[3] = Rattus norvegicus, po; read-out: gastric lesion test ED50
[4] = Rattus norvegicus, po, read-out: gastric lesion test ED50

Compound	ED50 [1]	ED50 [2, 3]	compound 48/80 lethality test rats-ED50 ([1]; rats, subcutaneous or oral, 1 h before compound 48/80 0.5 mg/kg i.v., 50% protected, survival after 4 h)	gastric lesion test ED50 ([2]; rats, oral, 2 h before compound 48/80 1 mg/kg i.v.; stomach distension and glandular lesions completely absent in 50% of rats)	ED50 [2, 4]
COc1ccc2c(c1)nc(NC1CCN(CCNc3ncccn3)CC1)n2Cc1ccc(F)cc1	1.25 mg/kg	2.5 mg/kg			
Oc1ccc2c(c1)nc(NC1CCN(CCNc3ncccn3)CC1)n2Cc1ccc(F)cc1	0.16 mg/kg	2.5 mg/kg			
COc1ccc2nc(NC3CCN(CCNc4ncccn4)CC3)n(Cc3ccc(F)cc3)c2c1	1.25 mg/kg	2.5 mg/kg			
Fc1ccc(Cn2c(NC3CCN(CCNc4ncnc5ccccc45)CC3)nc3ccccc32)cc1	0.08 mg/kg	2.5 mg/kg			
3[(4-fluorophenyl)methyl]-N-[1-[2-[(2-pyridinyl)amino]ethyl]-4-piperidinyl]-3H-imidazo[4,5-b]pyridin-2-amine [Compound 23]			0.04 mg/kg body weight	0.08 mg/kg body weight	
OCCN1CCC(Nc2nc3ncccc3n2Cc2ccc(F)cc2)CC1 [CH2 CH2 OH 4-FC6 H4 CH2 -- 4 base]	0.01 mg/kg	0.63 mg/kg			
Fc1ccc(Cn2c(NC3CCN(CCNc4ncccn4)CC3)nc3ccccc32)cc1 [Compound 1, 1-[(4-fluorophenyl)methyl]-N-[1-[2-[(2-pyrimidinyl)amino]ethyl]-4-piperidinyl]-1H-benzimidazol-2-amine]	0.16 mg/kg	0.63 mg/kg			
Fc1ccc(Cn2c(NC3CCN(CCCCNc4ncccn4)CC3)nc3ccccc32)cc1 [Compound 2]	0.16 mg/kg	2.5 mg/kg			
CC(CN1CCC(Nc2nc3ccccc3n2Cc2ccc(F)cc2)CC1)Nc1ncccn1 (stereo not drawn) [Compound 7]	0.63 mg/kg	0.63 mg/kg			
Fc1ccc(Cn2c(NC3CCN(CCN(Cc4ccccc4)c4ncccn4)CC3)nc3ccccc32)cc1 [Compound 8]	0.63 mg/kg	0.63 mg/kg			
CN(CCN1CCC(Nc2nc3ccccc3n2Cc2ccc(F)cc2)CC1)c1ncccn1 [Compound 10]	0.08 mg/kg	0.63 mg/kg			
Fc1ccc(Cn2c(NC3CCN(C4CCCN(c5ncccn5)C4)CC3)nc3ccccc32)cc1 (stereo not drawn) [Compound 12]	1.25 mg/kg	2.5 mg/kg			
O=[N+]([O-])c1ccc(NCCN2CCC(Nc3nc4ccccc4n3Cc3ccc(F)cc3)CC2)nc1 [Compound 13]	0.31 mg/kg	2.5 mg/kg			
O=[N+]([O-])c1cc[n+]([O-])cc1NCCN1CCC(Nc2nc3ccccc3n2Cc2ccc(F)cc2)CC1 [Compound 14]	0.04 mg/kg	1.25 mg/kg			
c1ccc(Cn2c(NC3CCN(CCNc4ncccn4)CC3)nc3ccccc32)nc1 [Compound 15]	0.04 mg/kg	0.63 mg/kg			
c1cnc(NCCN2CCC(Nc3nc4ccccc4n3Cc3cnccn3)CC2)nc1 [Compound 18]	0.01 mg/kg	0.63 mg/kg			
c1cnc(NCCN2CCC(Nc3nc4ccccc4n3Cc3cccs3)CC2)nc1 [Compound 19]	0.02 mg/kg	2.5 mg/kg			
c1cnc(NCCN2CCC(Nc3nc4ccccc4n3Cc3ccoc3)CC2)nc1 [Compound 20]	0.04 mg/kg	0.63 mg/kg			
Cc1ccc(Cn2c(NC3CCN(CCNc4ncccn4)CC3)nc3ccccc32)o1 [Compound 21]	0.04 mg/kg	0.63 mg/kg			
Fc1ccc(Cn2c(NC3CCN(CCCCCNc4ncccn4)CC3)nc3ccccc32)cc1 [Compound 22]	0.31 mg/kg				0.08 mg/kg
NC(=O)c1cccnc1NCCN1CCC(Nc2nc3cccnc3n2Cc2ccc(F)cc2)CC1 [Compound 24, 2-[[2-[4-[[3-[(4-fluorophenyl)methyl]-3H-imidazo[4,5-b]pyridin-2-yl]amino]-1-piperidinyl]ethyl]amino]-3-pyridinecarboxamide]	0.04 mg/kg				0.04 mg/kg
Fc1ccc(Cn2c(NC3CCN(CCNc4ncccn4)CC3)nc3ncccc32)cc1 [Compound 25, 1-[(4-fluorophenyl)methyl]-N-[1-[2-[(2-pyrimidinyl)amino]ethyl]-4-piperidinyl]-1H-imidazo[4,5-b]pyridin-2-amine]	0.02 mg/kg	0.16 mg/kg			
c1ccc(Cn2c(NC3CCN(CCNc4ncccn4)CC3)nc3cccnc32)nc1 [Compound 27, 3-(2-pyridinylmethyl)-N-[1-[2-(2-pyrimidinylamino)ethyl]-4-piperidinyl]3H-imidazo[4,5-b]pyridin-2-amine (E)-2-butenedioate (2:3)]	0.04 mg/kg	2.5 mg/kg			

Compound	ED50 [1]	ED50 [2, 3]	compound 48/80 lethality test rats-ED50 ([1]; rats, subcutaneous or oral, 1 h before compound 48/80 0.5 mg/kg i.v., 50% protected, survival after 4 h)	gastric lesion test ED50 ([2]; rats, oral, 2 h before compound 48/80 1 mg/kg i.v.; stomach distension and glandular lesions completely absent in 50% of rats)	ED50 [2, 4]
c1cnc(NCCN2CCC(Nc3nc4cccnc4n3Cc3ccco3)CC2)nc1 [Compound 28, 3-(2-furanylmethyl)-N-[1-[2-(2-pyrimidinylamino)ethyl]-4-piperidinyl]-3H-imidazo[4,5-b]pyridin-2-amine]	0.04 mg/kg	0.63 mg/kg			
Cl.Cl.Cl.Fc1ccc(Cn2c(NC3CCN(CCCNc4ccc(Cl)cn4)CC3)nc3ccccc32)cc1.O [Compound 30, N-[1-[3-[(5-chloro-2-pyridinyl)amino]propyl]-4-piperidinyl]-1-[(4-fluorophenyl)methyl]-1H-benzimidazol-2-amine trihydrochloride monohydrate]	0.63 mg/kg	2.5 mg/kg			
Nc1c(Cl)ncnc1NCCN1CCC(Nc2nc3ccccc3n2Cc2ccc(F)cc2)CC1 [Compound 31, 6-chloro-N^4-[2-[4-[[1-[(4-fluorophenyl)methyl]-1H-benzimidazol-2-yl]amino]-1-piperidinyl]ethyl]-4,5-pyrimidinediamine]	0.16 mg/kg	1.25 mg/kg			
Fc1ccc(Cn2c(NC3CCN(CCNc4cnccn4)CC3)nc3ccccc32)cc1 [Compound 33]	0.16 mg/kg	2.5 mg/kg			
Nc1cc(NCCN2CCC(Nc3nc4ccccc4n3Cc3ccc(F)cc3)CC2)nc(N)n1 [Compound 34]	0.08 mg/kg	0.16 mg/kg			
NC(=O)c1cccnc1NCCN1CCC(Nc2nc3ccccc3n2Cc2ccc(F)cc2)CC1 [Compound 36]	0.08 mg/kg	0.16 mg/kg			
Fc1ccc(Cn2c(NC3CCN(CCNc4ccc(Cl)nn4)CC3)nc3ccccc32)cc1 [Compound 37]	0.08 mg/kg	1.25 mg/kg			
Fc1ccc(Cn2c(NC3CCN(CCNc4ccc(Br)cn4)CC3)nc3ccccc32)cc1 [Compound 39]	0.31 mg/kg	2.5 mg/kg			
Fc1ccc(Cn2c(NC3CCN(CCNc4ncccc4Cl)CC3)nc3ccccc32)cc1 [Compound 40]	0.16 mg/kg	0.31 mg/kg			
NC(=O)c1ccc(NCCN2CCC(Nc3nc4ccccc4n3Cc3ccc(F)cc3)CC2)nc1 [Compound 42]	0.04 mg/kg				0.08 mg/kg
c1cnc(NCCN2CCC(Nc3nc4ccccc4n3Cc3ccco3)CC2)nc1 [Compound 43]	0.16 mg/kg				0.04 mg/kg
NC(=O)c1cccnc1NCCN1CCC(Nc2nc3ccccc3n2Cc2ccco2)CC1 [Compound 46]	0.04 mg/kg	0.63 mg/kg			
Fc1ccc(Cn2c(NC3CCN(CCNc4ncccc4Cl)CC3)nc3cccnc32)cc1 [Compound 47]	0.08 mg/kg	0.31 mg/kg			
Brc1ccc(NCCN2CCC(Nc3nc4ccccc4n3Cc3ccccc3)CC2)nc1 [Compound 49]	0.31 mg/kg	2.5 mg/kg			
Cc1ccc(Cn2c(NC3CCN(CCNc4ccc(Br)cn4)CC3)nc3ccccc32)cc1 [Compound 51]	0.02 mg/kg				0.08 mg/kg
CN(CCN1CCC(Nc2nc3ccccc3n2Cc2ccc(F)cc2)CC1)c1ccc(Cl)cn1 [Compound 56]	0.31 mg/kg	1.25 mg/kg			
Cl.Cl.Fc1ccc(Cn2c(NC3CCN(CCNc4ccnc(Cl)n4)CC3)nc3ccccc32)cc1.O [Compound 60, N-[1-[2-[(2-chloro-4-pyrimidinyl)amino]ethyl]-4-piperidinyl]-1-[(4-fluorophenyl)methyl]1H-benzimidazol-2-amine dihydrochloride monohydrate]	0.31 mg/kg	2.5 mg/kg			
Cc1cc(NCCN2CCC(Nc3nc4ccccc4n3Cc3ccc(F)cc3)CC2)nc(Cl)n1 [Compound 61, N-[1-[2-[(2-chloro-6-methyl-4-pyrimidinyl)amino]ethyl]-4-piperidinyl]-1-[(4-fluorophenyl)methyl]-1H-benzimidazol-2-amine]	0.08 mg/kg	2.5 mg/kg			
Nc1nc(NCCN2CCC(Nc3nc4ccccc4n3Cc3ccc(F)cc3)CC2)ccc1[N+](=O)[O-] [Compound 63, N^6-[2-[4-[[1-[(4-fluorophenyl)methyl]1H-benzimidazol-2-yl]amino]-1-piperidinyl]ethyl]-3-nitro-2,6-pyridinediamine]	0.31 mg/kg	2.5 mg/kg			
O=C(NCCN1CCC(Nc2nc3ccccc3n2Cc2ccc(F)cc2)CC1)c1cccnc1Cl [Compound 115, 2-chloro-N-[2-[4-[[1-[(4-fluorophenyl)methyl]-1H-benzimidazol-2-yl]amino]-1-piperidinyl]ethyl]-3-pyridinecarboxamide (E)-2-butenedioate (1:2) hemihydrate]	0.16 mg/kg				
N#CCN1CCC(Nc2nc3cnccc3n2Cc2ccc(F)cc2)CC1 [Intermediate 81]	0.63 mg/kg				
NCCN1CCC(Nc2nc3cnccc3n2Cc2ccc(F)cc2)CC1 [Intermediate 111]	0.16 mg/kg				
